Consider one compound from article doi:10.1101/2024.08.21.608984v2 (biorxiv, 2025).

In experiment [1] the target is GluN1/GluN2B NMDAR (Homo sapiens, UniProt Q05586+Q13224, Q05586:Y647S). Put plainly: two-electrode voltage clamp, Xenopus oocytes. In kind it is cell-based.
For experiment [2], the target named is GluN1/GluN2A NMDAR (Homo sapiens, UniProt Q05586+Q12879, Q05586:Y647S). As to the kind of experiment: two-electrode voltage clamp, Xenopus oocytes. In kind it is cell-based.
GluN1/GluN2A NMDAR, sequence (Q12879 23-1464, other chains not shown): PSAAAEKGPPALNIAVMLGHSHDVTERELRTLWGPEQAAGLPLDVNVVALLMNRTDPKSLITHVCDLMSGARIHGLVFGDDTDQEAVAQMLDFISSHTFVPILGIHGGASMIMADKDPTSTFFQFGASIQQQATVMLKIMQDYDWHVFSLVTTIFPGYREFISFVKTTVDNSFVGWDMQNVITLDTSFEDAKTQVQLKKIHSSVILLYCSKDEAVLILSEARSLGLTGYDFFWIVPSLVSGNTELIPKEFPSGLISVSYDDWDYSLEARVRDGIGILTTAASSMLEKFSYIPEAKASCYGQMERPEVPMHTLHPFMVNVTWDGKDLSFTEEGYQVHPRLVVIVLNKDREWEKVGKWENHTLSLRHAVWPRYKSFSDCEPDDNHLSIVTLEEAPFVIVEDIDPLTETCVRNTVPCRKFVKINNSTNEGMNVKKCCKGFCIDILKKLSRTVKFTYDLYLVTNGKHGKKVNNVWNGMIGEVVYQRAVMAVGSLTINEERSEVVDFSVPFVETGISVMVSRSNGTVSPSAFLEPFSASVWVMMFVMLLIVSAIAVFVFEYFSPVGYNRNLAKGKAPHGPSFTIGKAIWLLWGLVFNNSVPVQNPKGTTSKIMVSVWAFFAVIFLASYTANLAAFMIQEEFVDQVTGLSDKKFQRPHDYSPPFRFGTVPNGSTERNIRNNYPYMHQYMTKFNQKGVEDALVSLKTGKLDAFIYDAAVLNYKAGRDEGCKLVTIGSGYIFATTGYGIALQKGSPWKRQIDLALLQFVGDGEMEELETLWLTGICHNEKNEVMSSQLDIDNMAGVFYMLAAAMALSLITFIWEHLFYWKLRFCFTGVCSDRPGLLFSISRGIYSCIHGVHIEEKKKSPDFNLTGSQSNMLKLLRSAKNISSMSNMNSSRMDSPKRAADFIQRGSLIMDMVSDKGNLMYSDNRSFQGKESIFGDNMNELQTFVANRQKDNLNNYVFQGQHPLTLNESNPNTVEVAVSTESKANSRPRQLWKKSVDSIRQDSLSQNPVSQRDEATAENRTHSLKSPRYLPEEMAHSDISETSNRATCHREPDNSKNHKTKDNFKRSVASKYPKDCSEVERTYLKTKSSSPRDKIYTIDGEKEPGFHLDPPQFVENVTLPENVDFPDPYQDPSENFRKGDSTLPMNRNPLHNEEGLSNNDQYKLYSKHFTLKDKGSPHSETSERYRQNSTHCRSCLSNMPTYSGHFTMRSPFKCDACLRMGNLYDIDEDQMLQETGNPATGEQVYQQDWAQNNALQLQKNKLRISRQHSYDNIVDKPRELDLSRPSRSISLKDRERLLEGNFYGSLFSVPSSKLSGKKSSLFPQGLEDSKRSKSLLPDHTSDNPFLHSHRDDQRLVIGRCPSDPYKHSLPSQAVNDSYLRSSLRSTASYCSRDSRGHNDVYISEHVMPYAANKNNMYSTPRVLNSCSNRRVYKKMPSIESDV

GluN1/GluN2B NMDAR, sequence (Q13224 27-1484, other chains not shown): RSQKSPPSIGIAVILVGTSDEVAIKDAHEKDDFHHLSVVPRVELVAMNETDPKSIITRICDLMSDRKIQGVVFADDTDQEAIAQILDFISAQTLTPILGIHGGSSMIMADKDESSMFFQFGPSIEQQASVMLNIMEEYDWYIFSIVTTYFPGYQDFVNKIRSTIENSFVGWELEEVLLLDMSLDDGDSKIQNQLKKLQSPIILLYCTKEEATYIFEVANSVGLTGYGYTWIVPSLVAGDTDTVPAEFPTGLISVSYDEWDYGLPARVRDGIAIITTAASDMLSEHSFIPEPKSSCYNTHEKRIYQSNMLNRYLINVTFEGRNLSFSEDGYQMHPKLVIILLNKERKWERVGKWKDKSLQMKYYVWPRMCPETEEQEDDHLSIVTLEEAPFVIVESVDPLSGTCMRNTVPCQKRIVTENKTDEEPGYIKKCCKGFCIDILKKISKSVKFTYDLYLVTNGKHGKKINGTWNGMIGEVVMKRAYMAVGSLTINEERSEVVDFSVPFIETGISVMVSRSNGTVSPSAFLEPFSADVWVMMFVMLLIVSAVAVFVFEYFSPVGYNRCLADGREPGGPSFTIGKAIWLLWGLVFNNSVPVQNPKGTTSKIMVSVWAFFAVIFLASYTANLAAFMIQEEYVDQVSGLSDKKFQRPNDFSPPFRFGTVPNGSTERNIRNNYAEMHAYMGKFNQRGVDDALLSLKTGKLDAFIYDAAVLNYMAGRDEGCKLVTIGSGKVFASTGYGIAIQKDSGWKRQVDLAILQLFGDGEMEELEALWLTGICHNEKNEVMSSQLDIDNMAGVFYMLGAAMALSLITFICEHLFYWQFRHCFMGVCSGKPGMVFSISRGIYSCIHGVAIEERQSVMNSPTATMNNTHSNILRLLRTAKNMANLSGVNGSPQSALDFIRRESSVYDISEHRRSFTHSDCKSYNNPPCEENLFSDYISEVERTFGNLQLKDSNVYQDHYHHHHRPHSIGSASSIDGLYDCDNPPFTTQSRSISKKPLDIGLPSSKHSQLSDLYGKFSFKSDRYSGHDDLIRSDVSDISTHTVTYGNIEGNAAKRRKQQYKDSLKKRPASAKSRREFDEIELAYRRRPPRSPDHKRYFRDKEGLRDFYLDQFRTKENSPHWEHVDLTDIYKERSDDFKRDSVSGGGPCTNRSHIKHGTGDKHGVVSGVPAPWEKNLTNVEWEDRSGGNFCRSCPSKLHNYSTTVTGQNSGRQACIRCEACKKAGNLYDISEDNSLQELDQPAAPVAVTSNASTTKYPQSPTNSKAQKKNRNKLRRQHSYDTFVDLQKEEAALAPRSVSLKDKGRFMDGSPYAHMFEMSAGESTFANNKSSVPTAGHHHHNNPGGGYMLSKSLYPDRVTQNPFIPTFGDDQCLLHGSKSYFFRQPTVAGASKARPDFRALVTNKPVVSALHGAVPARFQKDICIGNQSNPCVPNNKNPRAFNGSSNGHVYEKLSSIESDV

Turning to `NCC(=O)O` [glycine], the EC50 (in general, the concentration giving half of the maximal effect) came out at 17 nM in experiment [1] and 36 nM in experiment [2].
